This passage reports Ki results from patent US12577259B2, “PCSK9 antagonist compounds” (MERCK SHARP & DOHME LLC, priority 2019, dated 2026).

Common to all, as to format: binding
The target of experiment [1] is T1, PCSK9 (Homo sapiens, UniProt Q8NBP7).
T1 construct: biotin (biotinylated); purchased
Description: PCSK9 Alexa FRET Standard TR-FRET assay. The note with it: biotinylated PCSK9 0.5 nM, 20 nM AF cyclic peptide Reagent A; Ki calculated from IC50 and KD of AF peptide; read-out: Alexa FRET Stdt TR-FRET. The method, then:
(§1) The following is a description of the assays used to determine activity of compounds of the invention, and any comparator compounds reported, toward PCSK9 antagonism. Biotinylated PCSK9 was obtained commercially.
A separate solution containing 40 nM of the AlexaFluor tagged cyclic peptide is made in the same buffer system. An Echo is used to transfer 0.750 ul of compound to an assay plate followed by the addition of 15 ul of PCSK9+Stept-Eu and 15 ul of AF peptide. […] The reaction is incubated at room temperature for at least two hours prior to fluorescence measurements using an Envision Multilabel Reader. IC50 values are determined by fitting data to a sigmoidal dose-response curve using nonlinear regression. Ki is then calculated from the Ic50 and the KD of AF cyclic peptide. Counts (B-counts) of the europium-labeled PCSK9 are followed to observe if compounds are adversely PCSK9. A fall off of the B-counts likely indicates a false positive of inhibition. Data from this procedure is reported as “A=‘numerical value’ (nanomolar)”

Experiment [2] addresses T1, PCSK9. Description: PCSK9 Alexa FRET Plus TR-FRET assay. To be noted: biotinylated PCSK9 0.5 nM, 960 nM AF cyclic peptide Reagent B; Ki calculated from IC50 and KD of AF peptide. The protocol: as §1
An Echo is used to transfer 0.075 ul of compound plus 0.675 ul of DMSO to each well of an assay plate followed by the addition of 15 ul of PCSK9+Stept-Eu and 15 ul of AF peptide. […] The reaction is incubated at room temperature for at least two hours prior to fluorescence measurements using an Envision Multilabel Reader. IC50 values are determined by fitting data to a sigmoidal dose-response curve using nonlinear regression. Ki is then calculated from the Ic50 and the KD of AF cyclic peptide. Counts (B-counts) of the europium-labeled PCSK9 are followed to observe if compounds are adversely affecting PCSK9. […] Data from this procedure is reported as “P=‘numerical value’ (nanomolar)”

Experiment [3] concerns the target T1, PCSK9. Description: PCSK9 Alexa FRET Ultra TR-FRET assay. The protocol:
The following is a description of the assays used to determine activity of compounds of the invention, and any comparator compounds reported, toward PCSK9 antagonism. Biotinylated PCSK9 was obtained commercially. […] An Echo is used to transfer 0.015 ul of compound plus 0.735 ul of DMSO to each well of an assay plate followed by the addition of 15 ul of PCSK9+Stept-Eu and 15 ul of AF peptide. […] The reaction is incubated at room temperature for at least two hours prior to fluorescence measurements using an Envision Multilabel Reader. IC50 values are determined by fitting data to a sigmoidal dose-response curve using nonlinear regression. Ki is then calculated from the Ic50 and the KD of AF cyclic peptide. Counts (B-counts) of the europium-labeled PCSK9 are followed to observe if compounds are adversely affecting PCSK9. […] Data from this procedure is reported as “Ki Ultra=‘numerical value’ (data reported is nanomolar)”

[4] abbreviates: Ki Ultra, biotinylated PCSK9 0.5 nM, 960 nM AF cyclic peptide, Ki calculated from IC50 and KD of AF peptide, read-out: Alexa FRET Ultra TR-FRET.

A value given as a limit tells only on which side of the number the result lay.

T1 sequence (Q8NBP7 153-692): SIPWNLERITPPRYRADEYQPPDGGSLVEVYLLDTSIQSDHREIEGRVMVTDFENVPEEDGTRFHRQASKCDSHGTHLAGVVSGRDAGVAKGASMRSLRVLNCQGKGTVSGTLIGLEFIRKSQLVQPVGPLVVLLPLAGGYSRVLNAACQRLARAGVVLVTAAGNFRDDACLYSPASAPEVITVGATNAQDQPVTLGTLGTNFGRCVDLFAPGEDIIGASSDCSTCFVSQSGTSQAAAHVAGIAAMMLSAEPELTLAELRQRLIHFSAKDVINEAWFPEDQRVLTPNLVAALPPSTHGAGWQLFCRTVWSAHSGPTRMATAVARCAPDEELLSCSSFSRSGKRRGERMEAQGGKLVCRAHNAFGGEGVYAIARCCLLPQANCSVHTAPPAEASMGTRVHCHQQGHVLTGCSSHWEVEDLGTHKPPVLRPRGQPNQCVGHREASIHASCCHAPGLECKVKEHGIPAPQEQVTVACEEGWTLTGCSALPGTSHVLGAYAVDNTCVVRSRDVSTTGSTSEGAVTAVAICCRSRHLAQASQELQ

On to `COc1ccc(C[C@@H]2NC(=O)[C@H]([C@@H](C)O)NC(=O)[C@@H]3[C@@H]4CCN3C(=O)[C@@H]3Cc5cn(c6ccc(F)cc56)Cc5cn(nn5)Cc5cc(ccc5CNC(=O)CCCCCC(=O)N[C@H](CNC(=O)COCCOCCNC(=O)CC[C@H](NC(=O)CCOCCOCC[N+](C)(C)CCNC(=O)COCCOCCNC(=O)COCCOCCNC(=O)CCC(NC(=O)CCCCCCCCCCCCCCCCC(=O)O)C(=O)O)C(=O)O)C(=O)N[C@@H](Cc5cccc(c5)C/C=C/CO4)C(=O)N3)CCNC(=O)[C@]3(C)CCCN3C2=O)cc1` (some centres unmarked) [Example 1], for which the Ki in experiment [1] is less than 1260 pM; in experiment [2], 205 pM; in experiment [3] (setting [4]) it was 488 pM.

Regarding `COc1ccc(C[C@@H]2NC(=O)[C@H]([C@@H](C)O)NC(=O)[C@@H]3[C@@H]4CCN3C(=O)[C@@H]3Cc5cn(c6ccc(F)cc56)Cc5cn(nn5)Cc5cc(ccc5CNC(=O)CCCCCC(=O)N[C@H](CNC(=O)COCCOCC[N+](C)(C)CCNC(=O)COCCOCCNC(=O)COCCOCCNC(=O)CCC(NC(=O)CCCCCCCCOCCCCCCCCC(=O)O)C(=O)O)C(=O)N[C@@H](Cc5cccc(c5)C/C=C/CO4)C(=O)N3)CCNC(=O)[C@]3(C)CCCN3C2=O)cc1` (some centres unmarked) [Example 2], the Ki in experiment [1] is less than 1260 pM; in experiment [2], 24 pM; in experiment [3] (setting [4]) it was 140 pM.

Turning to `COc1ccc(C[C@@H]2NC(=O)[C@H]([C@@H](C)O)NC(=O)[C@@H]3[C@@H]4CCN3C(=O)[C@@H]3Cc5cn(c6ccc(F)cc56)Cc5cn(nn5)Cc5cc(ccc5CNC(=O)CCCCCC(=O)N[C@H](CNC(=O)CCOCCOCC[N+](C)(C)CCNC(=O)COCCOCCNC(=O)COCCOCCNC(=O)CC[C@@H](NC(=O)CC[C@@H](NC(=O)CCCCCCCCCCCCCCCCC(=O)O)C(=O)O)C(=O)O)C(=O)N[C@@H](Cc5cccc(c5)C/C=C/CO4)C(=O)N3)CCNC(=O)[C@]3(C)CCCN3C2=O)cc1` [Example 3], the Ki in experiment [1] was less than 1260 pM; in experiment [2], 82 pM; in experiment [3] (setting [4]) it was 430 pM.

Turning to `COc1ccc(C[C@@H]2NC(=O)[C@H]([C@@H](C)O)NCC(=O)[C@@H]3[C@@H]4CCN3C(=O)[C@@H]3Cc5cn(c6ccc(F)cc56)Cc5cn(nn5)Cc5cc(ccc5CNC(=O)CCCCCC(=O)N[C@H](CNC(=O)CCOCCOCC[N+](C)(C)CCOCCNC(=O)COCCOCCNC(=O)COCCOCCNC(=O)CC[C@H](NC(=O)CC[C@H](NC(=O)CCCCCCCCCCCCCCC(=O)O)C(=O)O)C(=O)O)C(=O)N[C@@H](Cc5cccc(c5)C/C=C/CO4)C(=O)N3)CCNC(=O)[C@]3(C)CCCN3C2=O)cc1` [Example 4], the Ki in experiment [1] is less than 1260 pM; in experiment [2], 37 pM; in experiment [3] (setting [4]), 160 pM.

Turning to `COc1ccc(C[C@@H]2NC(=O)[C@H]([C@@H](C)O)NC(=O)[C@@H]3[C@@H]4CCN3C(=O)[C@@H]3Cc5cn(c6ccc(F)cc56)Cc5cn(nn5)Cc5cc(ccc5CNC(=O)CCCCCC(=O)N[C@H](CNC(=O)CCOCCOCC[N+](C)(C)CCNC(=O)COCCOCCNC(=O)COCCOCCNC(=O)CC[C@H](NC(=O)CCCCCCCCCCCCCCC(=O)O)C(=O)O)C(=O)N[C@@H](Cc5cccc(c5)C/C=C/CO4)C(=O)N3)CCNC(=O)[C@]3(C)CCCN3C2=O)cc1` [Example 5], the Ki in experiment [1] is less than 1260 pM; in experiment [2], 36 pM; in experiment [3] (setting [4]), 130 pM.

In the case of `COc1ccc(C[C@@H]2NC(=O)[C@H]([C@@H](C)O)NC(=O)[C@@H]3[C@@H]4CCN3C(=O)[C@@H]3Cc5cn(c6ccc(F)cc56)Cc5cn(nn5)Cc5cc(ccc5CNC(=O)CCCCCC(=O)N[C@H](CNC(=O)CCOCCOCC[N+](C)(C)CCNC(=O)COCCOCCNC(=O)COCCOCCNC(=O)CC[C@H](NC(=O)CC[C@H](NC(=O)CCCCCCCCCCCCCCCCC(=O)O)C(=O)O)C(=O)O)C(=O)N[C@@H](Cc5cccc(c5)C/C=C/CO4)C(=O)N3)CCNC(=O)[C@]3(C)CCCN3C2=O)cc1` [Example 6], the figures for the Ki in experiment [1], in experiment [2] and in experiment [3] (setting [4]) were less than 1260 pM, 49 pM and 360 pM, respectively.

Take `COc1ccc(C[C@@H]2NC(=O)[C@H]([C@@H](C)OCc3cn(CCNC(=O)CCOCCOCC[N+](C)(C)C)nn3)NC(=O)[C@@H]3[C@@H]4CCN3C(=O)[C@@H]3Cc5cn(c6ccc(F)cc56)CCCCCCN(Cc5ccc(cc5)CCNC(=O)[C@]5(C)CCCN5C2=O)C(=O)CCC(=O)N[C@@H](C)C(=O)N[C@H](CNC(=O)COCCOCCNC(=O)COCCOCCNC(=O)CC[C@H](NC(=O)CCCCCCCCCCCCCCCCC(=O)O)C(=O)O)C(=O)N[C@@H](Cc2cccc(c2)CNC(=O)CO4)C(=O)N3)cc1` [Example 7]: the values for the Ki in experiment [1], in experiment [2] and in experiment [3] (setting [4]) were less than 1260 pM, less than 6 pM and 4 pM, respectively.

In the case of `COc1ccc(C[C@@H]2NC(=O)[C@H]([C@@H](C)OCc3cn(CCNC(=O)COCCOCCNC(=O)COCCOCCNC(=O)CC[C@H](NC(=O)CCCCCCCCCCCCCCCCC(=O)O)C(=O)O)nn3)NC(=O)[C@@H]3[C@@H]4CCN3C(=O)[C@@H]3Cc5cn(c6ccc(F)cc56)CCCCCCN(Cc5ccc(cc5)CCNC(=O)[C@]5(C)CCCN5C2=O)C(=O)CCC(=O)N[C@@H](C)C(=O)N[C@H](CNC(=O)CCOCCOCC[N+](C)(C)C)C(=O)N[C@@H](Cc2cccc(c2)CNC(=O)CO4)C(=O)N3)cc1` [Example 8], the Ki in experiment [1] was less than 1260 pM; in experiment [2], less than 6 pM; in experiment [3], 6 pM.

Turning to `COc1ccc(C[C@@H]2NC(=O)[C@H]([C@@H](C)Oc3cn(CCNC(=O)CCOCCOCC[N+](C)(C)CCNC(=O)COCCOCCNC(=O)COCCOCCNC(=O)CCC(NC(=O)CC[C@H](NC(=O)CCCCCCCCCCCCCCCCC(=O)O)C(=O)O)C(=O)O)nn3)NC(=O)[C@@H]3[C@@H]4CCN3C(=O)[C@@H]3Cc5cn(c6ccc(F)cc56)CCCCCCN(Cc5ccc(cc5)CCNC(=O)[C@]5(C)CCCN5C2=O)C(=O)CCC(=O)N[C@@H](C)C(=O)N[C@H](CNC(=O)CCOCCOCC[N+](C)(C)C)C(=O)N[C@@H](Cc2cccc(c2)C/C=C/CO4)C(=O)N3)cc1` (some centres unmarked) [Example 9], the results for the Ki in experiment [1], in experiment [2] and in experiment [3] were less than 1260 pM, less than 6 pM and 3 pM, respectively.

As for `COc1ccc(C[C@@H]2NC(=O)[C@H]([C@@H](C)O)NC(=O)[C@@H]3[C@@H]4CCN3C(=O)[C@@H]3Cc5cn(c6ccc(F)cc56)CCCCCCN(Cc5ccc(cc5)CCNC(=O)[C@]5(C)CCCN5C2=O)C(=O)CCOCCC(=O)N[C@H](CNC(=O)CCOCCOCC[N+](C)(C)CCNC(=O)COCCOCCNC(=O)COCCOCCNC(=O)CC[C@H](NC(=O)CC[C@H](NC(=O)CCCCCCCCCCCCCCCCC(=O)O)C(=O)O)C(=O)O)C(=O)N[C@@H](Cc2cccc(c2)CNC(=O)CO4)C(=O)N3)cc1` [Example 10], the Ki in experiment [1] was less than 1260 pM; in experiment [2], less than 6 pM; in experiment [3], 4 pM.

With `COc1ccc(C[C@@H]2NC(=O)[C@H]([C@@H](C)O)NC(=O)[C@@H]3[C@@H]4CCN3C(=O)[C@@H]3Cc5cn(c6ccc(F)cc56)CCCCCCN(Cc5ccc(cc5)CCNC(=O)[C@]5(C)CCCN5C2=O)C(=O)CCOCCC(=O)N[C@H](CNC(=O)CCOCCOCC[N+](C)(C)CCNC(=O)COCCOCCNC(=O)COCCOCCNC(=O)CCC(NC(=O)CCCCCCCCCCCCCCC(=O)O)C(=O)O)C(=O)N[C@@H](Cc2cccc(c2)CNC(=O)CO4)C(=O)N3)cc1` (some centres unmarked) [Example 11], the Ki is less than 1260 pM in experiment [1], less than 6 pM in experiment [2] and 1 pM in experiment [3] (setting [4]).

In the case of `COc1ccc(C[C@@H]2NC(=O)[C@H]([C@@H](C)O)NC(=O)[C@@H]3[C@@H]4CCN3C(=O)[C@@H]3Cc5cn(c6ccc(F)cc56)CCCCCCN(Cc5ccc(cc5)CCNC(=O)[C@]5(C)CCCN5C2=O)C(=O)CCCCCC(=O)N[C@H](CNC(=O)CCOCCOCC[N+](C)(C)CCNC(=O)COCCOCCNC(=O)COCCOCCNC(=O)CC[C@H](NC(=O)CCCCCCCCCCCCCCC(=O)O)C(=O)O)C(=O)N[C@@H](Cc2cccc(c2)CNC(=O)CO4)C(=O)N3)cc1` [Example 13], the Ki was less than 1260 pM in experiment [1] and less than 6 pM in experiment [2].
